Data: US6271254A, “Pharmaceutical compositions containing R-α-lipoic acid or S-α-lipoic acid as active ingredient” (ASTA Pharma Aktiengesellschaft, priority 1989, dated 2001)

Assays:
rat [1] = assay: carragheen-induced oedema test in the rat; format: in vivo; settings: for ED50: 50% inhibition of paw oedema, read-out: anti-inflammatorily active ED50
Method: Caragheen-induced edema test for anti-inflammatory activity:
The investigation is conducted in carragheen-induced edema of the rat paw after the method of MOERSDORF and co-workers (Arch.int.Pharmacodyn. 192, 111-127 (1971)). The anti-inflammatory activity is, for example, given as inhibition of edema in percent as compared to the untreated control group. Application is oral or intraperitoneal in all experiments. The substance is administered orally or intraperitoneally 1 hour after triggering the inflammation. The ED50 is the dose in mg/kg at which there is 50% inhibition of the paw oedema.

mouse = assay: acid writhing pain test in the mouse (acetic acid test); format: in vivo; settings: po, per os, 50% inhibition of writhing syndrome, read-out: analgesically active ED50
Source text: Acetic acid test (writhing test) in the mouse Method: In the acetic acid test after KOSTER et al. (Fed. Proc., Vol. 18, page 412 (1959)) the pain stimulus triggered by an intraperitoneal injection of 1% acetic acid. The pain reaction is expressed in the form of the characteristic stretching of the animals ("writhing syndrome") which continues at irregular time intervals form some time after injection of the acetic acid. The dose-dependent inhibition of the frequency of the stretching movement as compared to an untreated control group is expressed in percent as analgesic activity. Evaluation is by determination type the ED50 (Method of linear regression). The ED50 is the dose in mg/kg at which there is a 50% inhibition of the "writhing syndrome".

rat [2] = assay: Randall-Selitto inflammatory pain test in the rat; format: in vivo; settings: po, per os; for ED50: 0.5 h, Randall-Selitto test, rat, 50% analgesic activity, read-out: analgesically effective ED50
Method: Randall-Selitto test (inflammatory pain in the rat)
By analogy with the method according to RANDALL and SELITTO (L. O. Randall and J. Selitto, Arch. int. Pharmacodyn. Vol. 111, pages 409-418 (1957)), rats receive subplantar injections of 0.1 ml of a 20% (in demineralized water) brewer's yeast suspension into the right back paw. 2 1/2 hours thereafter the test substances are administered and 30 minutes thereafter the pain threshold (in grams) is measured as pain in the inflamed paw, using a commercially available algesia meter. The criterion is the defense reaction shown by the animals in pulling the paw away and/or freeing themselves from the research worker's grip. The activity of the substance is measured in the form of the increase in the pain threshold as compared to an untreated control group. The course of the experiment differs from that in the original method in that the substances are only given 21/2 hours after provocation of the edema and not simultaneously therewith. In so doing the intention is to prevent the development of the edema being inhibited by a possible anti-inflammatory activity and masking or feigning analgesia.
The ED50 is determined using the linear regression method. The ED50 here is the dose in mg/kg it which mathematically there is a 50% analgesic activity.

[3] = tested on: human immunodeficiency virus HIV (HIV-1, HIV-2); assay: growth-inhibiting activity against retroviruses, in particular HIV (HIV-1, HIV-2); format: cell-based; settings: in vitro; in words
Source text: 3. Determination of reverse transcriptase in culture supernatant
4. Determination of p24 antigen in culture supernatant
In the case of the in vitro experiments the active ingredient is used, for example in benzyl alcohol as solvent.
The following substrates may, for example, be used for the in vitro investigations of the replication behavior of retroviruses, in particular HIV:
1. Virus-containing RPMI 1640 medium, for example 1X liquid 041-01875 (synthetic culture medium from Gibeo according to Moore, Gerner and Franklin, H. A. (1967), J.A.M.A. 199; 519) in a concentration of 2×10^3 -1×10^4 infectious units (PFU)/ml
2. The cell lines Jurkat Clone E6-1, Sup T1 and HeLa CT4.

[4] = acute toxicity in the mouse (method of LITCHFIELD and WILCOXON); settings: in vivo, oral administration
Method: The acute toxicity of R-α-lipoic acid and S-α-lipoic acid in the mouse (expressed as the LD50 mg/kg; method of LITCHFIELD and WILCOXON, J. Pharmacol. Exp Ther. 95, 99 (1949)), is for example in excess of 100 mg/kg in the case of oral administration.

[5] = analgesic, anti-inflammatory, anti-arthrotic and cytoprotective activity in investigatory models; format: in vivo, mouse, rat, chicken; settings: in words
Source text: The optical isomers of α-lipoic acid display a good analgesic, anti-inflammatory, anti-arthrotic and cytoprotective activity in, for example, the following investigatory models:
MgSO4 writhing test in the mouse according to GYIRES et al. (Arch.int.pharmacodyn.therap. 267, 131-140 (1984))
Adjuvans arthritis in the rat according to NEWBOULD (Brit.J.Pharmacol. 21, 127-136 (1963))
TPA- or arachidonic acid-induced mouse ear oedema according to YOUNG et al. (J.Invest.Dermatol. 80, 48-52 (1983))
Na-mono-iodazetate-induced arthrosis in rats or chickens according to KALBHEN in: Arthrosis deformans, Eular-Verlag, Basel/Switzerland, 1982
TPA-induced arthrosis in rats according to WEISCHER (Agents and Actions 23, 1/2 (1988))
Intestinal ulcerations in rats according to DEL SOLDATO (Agents and Actions 16, 393-396 (1985))
Colitis-model in the rat according to WEISCHER at al (Agents and Actions, vol. 26, 1/2, page 222 to 223, (1989))
Ethanol-ulcer model in the rat (determination for example of a cytoprotective activity).

[6] = analgesic and anti-inflammatory activity compared with the racemate (general statement, no test named); format: in vivo; settings: vs racemate
[7] = po, carragheen-induced oedema, rat, per os

Row | SMILES | ED50 (rat [1]; [7]) [mg/kg] | ED50 (mouse) [mg/kg] | ED50 (rat [2]) [mg/kg] | growth-inhibiting activity against retroviruses, in particular HIV (HIV-1, HIV-2) [3] | minimal effective dose (rat [1]; Rattus norvegicus, po, carragheen-induced oedema test, per os, read-out: minimum anti-inflammatorily effective dose) [mg/kg] | anti-inflammatory activity superior to that of racemic α-lipoic acid (factor) (rat [1]; carragheen-induced oedema, rat, peroral application) | LD50 [4] [mg/kg] | antinociceptive and cytoprotective activity (beside anti-inflammatory and anti-arthritic main activity) [5] | anti-inflammatory activity stronger than that of the racemate (factor) [6] [factor] | anti-inflammatory and cytoprotective activity (beside analgesic main activity) [5] | minimal effective dose (rat [2]; Rattus norvegicus, Randall-Selitto pain test, read-out: minimum analgesically effective dose) [mg/kg]
1 | O=C(O)CCCCC1CCSS1 (racemic) [racemate, 1,2-dithiacyclopentane-3-valeric acid, reference compound] | 49.7 | 51.3 | 45.9 |  |  |  |  |  |  |  | 
2 | O=C(O)CCCC[C@@H]1CCSS1 [R-α-lipoic acid] | 4.9 |  |  | growth-inhibiting activity | 1 | ≥ 10 | > 100 | to a lesser extent | 10 |  | 
3 | O=C(O)CCCC[C@H]1CCSS1 [S-α-lipoic acid] |  | 10.2 | 7.5 | growth-inhibiting activity |  |  | > 100 |  |  | to a lesser extent | 1
